Patent US20240300945A1, “CLY SERIES COMPOUND, PREPARATION METHOD THEREFOR AND USE THEREOF IN PREPARATION OF DRUGS” (NANJING WELLBEST PHARMACEUTICAL CO., LTD, priority 2021, published 2024)

Experiments:
[1] = Pharmacokinetic properties of rats (bioavailability); format: in vivo; conditions: rat, po; male SD rats; intravenous 1 mg/kg, intragastric 5 mg/kg; plasma LC/MS/MS
Method: Male SD rats were randomly assigned to each group, 12 rats in each compound group, and then randomly divided into two groups. Six rats were administered intravenously (1 mg/kg), and blood was collected and plasma was separated respectively at 0.0833, 0.25, 0.5, 1, 2, 4, 6, 8, and 24 hours after administration. The other six rats were administered intragastrically (5 mg/kg), and blood was collected and plasma was separated respectively at 0.25, 0.5, 1, 2, 4, 6, 8, and 24 hours after administration. The concentration of each compound in plasma was determined by LC/MS/MS method, and the relevant pharmacokinetic parameters were calculated by using the software Phoenix WinNonlin 6.2.1, the bioavailability in rats was calculated, and the pharmacokinetic properties of each compound were evaluated.

[2] = test system: skin hair follicles and sebaceous glands of rats; assay: Rat hair loss model: histopathological grading of skin hair follicles and sebaceous glands; format: in vivo, Wistar rats; conditions: 60 days, 10 rats per group; for number of rats with hair follicle and sebaceous gland grade +++: grade +++ (most severe); for number of rats with hair follicle and sebaceous gland grade ±: grade ± (lesions limited); for number of rats with hair follicle and sebaceous gland grade −: grade − (normal structure)
Source text: Wistar rats were, according to weights, randomly divided into the negative control group (75% ethanol for external use), model group (75% ethanol for external use), positive control group (external 5% minoxidil tincture), CLY-1 external treatment group (external 5% CLY-1 tincture), CLY-2 external treatment group (external 5% CLY-2 tincture), CLY-3 external treatment group (external 5% CLY-3 tincture), CLY-4 external treatment group (external 5% CLY-4 tincture), and CLY-5 external treatment group (external 5% CLY-5 tincture) according to their body weight CLY-8 external treatment group (external 5% CLY-8 tincture), CLY-11 external treatment group (external 5% CLY-11 tincture), CLY-19 external treatment group (external 5% CLY-19 tincture), CLY-36 external treatment group (external 5% CLY-36 tincture), CLY-39 external treatment group (external 5% CLY-39 tincture), CLY-1 intravenous injection group (2 mg/kg·d), CLY-3 intravenous injection group (2 mg/kg·d), CLY-4 intravenous injection group (2 mg/kg·d) CLY-5 intravenous injection group (2 mg/kg·d), CLY-8 intravenous injection group (2 mg/kg·d), CLY-11 intravenous injection group (2 mg/kg·d), CLY-19 intravenous injection group (2 mg/kg·d), CLY-36 intravenous injection group (2 mg/kg·d), and CLY-39 intravenous injection group (2 mg/kg·d), with 10 rats in each group. Before the experiment, an area of 4 cm×5 cm was selected on each rat on the back of the neck to remove hair as the observation area. In addition to the negative control group, rats were subcutaneously injected with testosterone propionate injection [5 ml/(kg·d)] once a day for 60 days to establish the androgenic alopecia (AGA) model. […] At the same time, the drug was applied to the observation area on the back of the rats in the corresponding drug group at the rate of 2 mL/(one time), twice a day, at an interval of 8 hours; Intravenous administration once a day. The negative control group and the model control group were smeared with 75% ethanol solution, 2 mL/(one rat per time), twice a day, for 60 days.
Took 10 hairs from the observation area on the back of each rat every 15 days after administration, and measured the hair length with a vernier caliper. After 60 days of administration, the skin of the experimental observation area was taken for routine tissue dehydration, paraffin embedding, HE staining, and light microscopy to observe the histopathological changes of the rat skin hair follicles and sebaceous glands. Semi-quantitative analysis was performed for each group. The grading criteria are as follows: the normal structure of dermal tissue cells, subcutaneous hair follicles, and sebaceous glands is marked as […]: no hyperplasia of dermal tissue is found, the lesions of hair follicles and sebaceous glands are limited, and no inflammation is found under the skin is marked as “+”: no obvious hyperplasia of dermal tissue is found, and the follicles are obviously cystic. No obvious hyperplasia of sebaceous glands is found, and no inflammation is found under the skin is marked as “+”: the dermal tissue has segmental hyperplasia, which is not obvious, A small number of hair follicles have cystic changes, and the sebaceous glands have mild hyperplasia and hypertrophy. There is no obvious inflammation under the skin, which is marked as “++”: the dermal tissue cells of the skin have different degrees of segmental hyperplasia, and some hair follicles have cystic changes, showing uneven size of hair follicles, and no cells around. The sebaceous glands have hyperplasia, and the nuclei in the proliferative glands are few. A few rats have mild inflammatory hyperplasia under the skin, which is marked as “+++”.

NC1CCCC(N(C(=O)c2ccc(-n3nnc4cccnc43)cc2)c2ncccc2Cl)C1 (centres unmarked) [CLY-11]
bioavailability [1]: 63.5% | number of rats with hair follicle and sebaceous gland grade +++ ([2]; external 5% tincture): 0 | number of rats with hair follicle and sebaceous gland grade +++ ([2]; intravenous 2 mg/kg·d): 0 | number of rats with hair follicle and sebaceous gland grade ++ ([2]; external 5% tincture): 1 | number of rats with hair follicle and sebaceous gland grade ++ ([2]; intravenous 2 mg/kg·d): 1 | number of rats with hair follicle and sebaceous gland grade + ([2]; external 5% tincture): 4 | number of rats with hair follicle and sebaceous gland grade + ([2]; intravenous 2 mg/kg·d): 3 | number of rats with hair follicle and sebaceous gland grade ± ([2]; external 5% tincture): 5 | number of rats with hair follicle and sebaceous gland grade ± ([2]; intravenous 2 mg/kg·d): 6 | number of rats with hair follicle and sebaceous gland grade − ([2]; external 5% tincture): 0 | number of rats with hair follicle and sebaceous gland grade − ([2]; intravenous 2 mg/kg·d): 0
